Test results taken from ChEMBL document CHEMBL1137452, “Synthesis of disulfide esters of dialkylaminocarbothioic acid as potent, non-detergent spermicidal agents” (Bioorg Med Chem, 2007).
Calls of active or inactive are those of the source. The rule behind the calls is not given here.

Organism: Homo sapiens
Experiment: Spermicidal activity against human spermatozoa
Format: functional
CN1CCN(CC(CSC(=O)N2CCCC2)SSC(CSC(=O)N2CCCC2)CN2CCN(C)CC2)CC1 (racemic) showed an MEC of 1 %w/v. O=C(SCC(CN1CCCC1)SSC(CSC(=O)N1CCOCC1)CN1CCCC1)N1CCOCC1 (racemic) gave an MEC of 0.1 %w/v. Work on O=C(SCC(CN1CCCCC1)SSC(CSC(=O)N1CCOCC1)CN1CCCCC1)N1CCOCC1 (racemic) yielded an MEC of 0.5 %w/v.

Organism: Homo sapiens
Experiment: Spermicidal activity against human spermatozoa at 1.0% w/v
Format: functional
CCN(CC)C(=O)SCC(CN1CCOCC1)SSC(CSC(=O)N(CC)CC)CN1CCOCC1 (stereo not given) was tested, and the Activity was “inactive”. With CCN(C)C(=O)SCC(CN1CCN(C)CC1)SSC(CSC(=O)N(C)CC)CN1CCN(C)CC1 (racemic) the Activity was “inactive”. For O=C(SCC(CN1CCOCC1)SSC(CSC(=O)N1CCCC1)CN1CCOCC1)N1CCCC1 (racemic), the Activity was “inactive”. CCN(C)C(=O)SCC(CN1CCCCC1)SSC(CSC(=O)N(C)CC)CN1CCCCC1 (racemic) was tested, and the Activity was “inactive”. For O=C(SCC(CN1CCOCC1)SSC(CSC(=O)N1CCOCC1)CN1CCOCC1)N1CCOCC1 (racemic), the Activity was “inactive”. CCN(CC)C(=O)SCC(CN1CCCCC1)SSC(CSC(=O)N(CC)CC)CN1CCCCC1 (racemic; 26) was tested, and the Activity was “inactive”. CCN(CC)C(=O)SCC(CN1CCCCC1)SSC(CSC(=O)N(CC)CC)CN1CCCCC1 (racemic; 29) was tested, and the Activity was “inactive”.
